Results: ChEMBL document CHEMBL1201862, “PubChem BioAssay data set” (2004)
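Briefly, cells in 96-well plates were exposed to five compound concentrations for 48 h, and endpoints were estimated by linear interpolation. At the GI50, growth is halved.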 Activity calls are given as the source filed them. Cut-off read from the data, not from the text of the source: active = GI50 up to about 1.1 µM and inactive = higher.

Experiments:
Test in all cases: DTP human tumour cell line panel, 48 h
[1] = test system: M14
[2] = test system: SF-295
[3] = test system: Hs-578T
[4] = test system: NCI-H23
[5] = test system: DU-145
[6] = test system: K562
[7] = test system: MOLT-4
[8] = test system: SK-OV-3
[9] = test system: HT-29
[10] = test system: SF-539
[11] = test system: OVCAR-4
[12] = test system: COLO 205
[13] = test system: TK-10
[14] = test system: A549
[15] = test system: MDA-N
[16] = test system: 786-0
[17] = test system: LOX IMVI
[18] = test system: SK-MEL-2
[19] = test system: CCRF-CEM
[20] = test system: NCI/ADR-RES
[21] = test system: SNB-19
[22] = test system: UACC-257
[23] = test system: MDA-MB-231
[24] = test system: SF-268
[25] = test system: SN12C
[26] = test system: HCC 2998
[27] = test system: HL-60
[28] = test system: UACC-62
[29] = test system: Malme-3M
[30] = test system: RPMI-8226
[31] = test system: SK-MEL-28
[32] = test system: SNB-75
[33] = test system: ACHN
[34] = test system: PC-3
[35] = test system: A498
[36] = test system: NCI-H226
[37] = test system: T47D
[38] = test system: U-251
[39] = test system: KM12
[40] = test system: HCT-116
[41] = test system: CAKI-1
[42] = test system: MDA-MB-435
[43] = test system: HCT-15
[44] = test system: NCI-H460
[45] = test system: OVCAR-5
[46] = test system: SW-620
[47] = test system: EKVX
[48] = test system: HOP-62
[49] = test system: SK-MEL-5
[50] = test system: OVCAR-8
[51] = test system: SR
[52] = test system: HOP-92
[53] = test system: UO-31
[54] = test system: OVCAR-3
[55] = test system: RXF 393
[56] = test system: IGROV-1
[57] = test system: MCF7
[58] = test system: NCI-H522

## C/C(=N\NC(N)=S)c1ccc2c(c1)Sc1ccccc1O2
[1]
  GI50: 2.4 µM (inactive)
[2]
  GI50: 4.63 µM (inactive)
[3]
  GI50: 3.78 µM (inactive)
[4]
  GI50: 3.7 µM (inactive)
[5]
  GI50: 28.1 µM (inactive)
[6]
  GI50: 2.36 µM (inactive)
[7]
  GI50: 2.54 µM (inactive)
[8]
  GI50: 4.11 µM (inactive)
[9]
  GI50: 1.61 µM (inactive)
[10]
  GI50: 2.26 µM (inactive)
[11]
  GI50: 2.47 µM (inactive)
[12]
  GI50: 1.1 µM (active)
[13]
  GI50: 3.73 µM (inactive)
[14]
  GI50: 2.5 µM (inactive)
[15]
  GI50: 0.373 µM (active)
[16]
  GI50: 3.18 µM (inactive)
[17]
  GI50: 2.62 µM (inactive)
[18]
  GI50: 2.11 µM (inactive)
[19]
  GI50: 3.67 µM (inactive)
[20]
  GI50: 2.55 µM (inactive)
[21]
  GI50: 6.55 µM (inactive)
[22]
  GI50: 6.14 µM (inactive)
[23]
  GI50: 5.05 µM (inactive)
[24]
  GI50: 2.36 µM (inactive)
[25]
  GI50: 3.34 µM (inactive)
[26]
  GI50: 1.66 µM (inactive)
[27]
  GI50: 3.88 µM (inactive)
[28]
  GI50: 2.42 µM (inactive)
[29]
  GI50: 5.53 µM (inactive)
[30]
  GI50: 2.16 µM (inactive)
[31]
  GI50: 3.81 µM (inactive)
[32]
  GI50: 2.53 µM (inactive)
[33]
  GI50: 4.55 µM (inactive)
[34]
  GI50: 2.59 µM (inactive)
[35]
  GI50: 2.59 µM (inactive)
[36]
  GI50: 9.23 µM (inactive)
[37]
  GI50: 6.61 µM (inactive)
[38]
  GI50: 2.37 µM (inactive)
[39]
  GI50: 4.19 µM (inactive)
[40]
  GI50: 2.69 µM (inactive)
[41]
  GI50: 1.04 µM (active)
[42]
  GI50: 0.29 µM (active)
[43]
  GI50: 0.593 µM
[44]
  GI50: 2.83 µM (inactive)
[45]
  GI50: 4.01 µM (inactive)
[46]
  GI50: 2.56 µM (inactive)
[47]
  GI50: 1.24 µM (inactive)
[48]
  GI50: 3.46 µM (inactive)
[49]
  GI50: 1.58 µM (inactive)
[50]
  GI50: 2.48 µM (inactive)
[51]
  GI50: 0.485 µM (active)
[52]
  GI50: 3.17 µM (inactive)
[53]
  GI50: 2.88 µM (inactive)
[54]
  GI50: 1.02 µM (active)

## COc1cc2c(cc1OC)C1C3CCCCC3CCN1CC2 (stereo not drawn)
[2]
  GI50: 83.8 µM (inactive)
[3]
  GI50: > 100 µM (inactive)
[4]
  GI50: > 100 µM (inactive)
[55]
  GI50: 27 µM (inactive)
[5]
  GI50: > 100 µM (inactive)
[6]
  GI50: > 100 µM (inactive)
[7]
  GI50: > 100 µM (inactive)
[8]
  GI50: > 100 µM (inactive)
[9]
  GI50: 88.9 µM (inactive)
[10]
  GI50: > 100 µM (inactive)
[11]
  GI50: > 100 µM (inactive)
[12]
  GI50: 67 µM (inactive)
[13]
  GI50: > 100 µM (inactive)
[14]
  GI50: 91.2 µM (inactive)
[16]
  GI50: 88.5 µM (inactive)
[17]
  GI50: > 100 µM (inactive)
[18]
  GI50: > 100 µM (inactive)
[19]
  GI50: > 100 µM (inactive)
[56]
  GI50: > 100 µM (inactive)
[20]
  GI50: > 100 µM (inactive)
[21]
  GI50: > 100 µM (inactive)
[22]
  GI50: > 100 µM (inactive)
[23]
  GI50: > 100 µM (inactive)
[24]
  GI50: > 100 µM (inactive)
[25]
  GI50: 62.7 µM (inactive)
[26]
  GI50: > 100 µM (inactive)
[27]
  GI50: > 100 µM (inactive)
[28]
  GI50: > 100 µM (inactive)
[29]
  GI50: > 100 µM (inactive)
[31]
  GI50: > 100 µM (inactive)
[32]
  GI50: 18.3 µM (inactive)
[33]
  GI50: > 100 µM (inactive)
[34]
  GI50: > 100 µM (inactive)
[35]
  GI50: > 100 µM (inactive)
[36]
  GI50: 88.1 µM (inactive)
[37]
  GI50: > 100 µM (inactive)
[38]
  GI50: > 100 µM (inactive)
[57]
  GI50: 0.36 µM (active)
[39]
  GI50: > 100 µM (inactive)
[40]
  GI50: 48.6 µM (inactive)
[41]
  GI50: > 100 µM (inactive)
[42]
  GI50: > 100 µM (inactive)
[43]
  GI50: > 100 µM
[44]
  GI50: > 100 µM (inactive)
[45]
  GI50: > 100 µM (inactive)
[46]
  GI50: > 100 µM (inactive)
[47]
  GI50: > 100 µM (inactive)
[48]
  GI50: > 100 µM (inactive)
[49]
  GI50: > 100 µM (inactive)
[58]
  GI50: > 100 µM (inactive)
[50]
  GI50: > 100 µM (inactive)
[51]
  GI50: > 100 µM (inactive)
[52]
  GI50: > 100 µM (inactive)
[54]
  GI50: 79.4 µM (inactive)

## CC1C(=O)C(C)C(c2ccccc2)N(C)C1c1ccccc1 (stereo not drawn)
[7]
  GI50: 34.5 µM (inactive)
[9]
  GI50: 47.6 µM (inactive)
[27]
  GI50: 39.8 µM (inactive)
[45]
  GI50: 63.8 µM (inactive)
[51]
  GI50: 32.3 µM (inactive)
